# Data from ChEMBL document CHEMBL5030517, “6-Halopyridylmethylidene Penicillin-Based Sulfones Efficiently Inactivate the Natural Resistance of Pseudomonas aeruginosa to β-Lactam Antibiotics” (J Med Chem, 2021).
# The source made the active and inactive calls. No cut-off for these calls is given here.
# Assays:
# [1] = Inhibition beta lactamase PDC-1 in Pseudomonas aeruginosa PAO1 using nitrocefin as substrate measured by 96 well microtitre plate
# [2] = tested on: Pseudomonas aeruginosa PAO1; assay: Inhibition of beta-lactamase activity in Pseudomonas aeruginosa PAO1 6/04-224 (ST-175) assessed as MIC for cefpodoxime antibacterial activity at 4 mg/L by broth microdilution method
# [3] = tested on: Pseudomonas aeruginosa PAO1; assay: Inhibition beta lactamase PDC-1 in Pseudomonas aeruginosa PAO1 assessed as maximum rate of inactivation using nitrocefin as substrate measured by 96 well microtitre plate
# [4] = tested on: Pseudomonas aeruginosa PAO1; assay: Inhibition of beta-lactamase activity in Pseudomonas aeruginosa PAO1 deltaC+pUCP-(PDC-1) assessed as MIC for cefpodoxime antibacterial activity at 16 mg/L by broth microdilution method
# [5] = tested on: Pseudomonas aeruginosa PAO1; assay: Inhibition of beta-lactamase activity in Pseudomonas aeruginosa PAO1 PAHUAC-27(ST-22) assessed as MIC for cefpodoxime antibacterial activity at 4 mg/L by broth microdilution method
# [6] = tested on: Pseudomonas aeruginosa PAO1; assay: Inhibition of beta-lactamase activity in Pseudomonas aeruginosa PAO1 13/09-018 (ST-175) assessed as MIC for cefpodoxime antibacterial activity at 4 mg/L by broth microdilution method
# [7] = tested on: Pseudomonas aeruginosa PAO1; assay: Inhibition of beta-lactamase activity in Pseudomonas aeruginosa PAO1 PAHUAC-27(ST-22) assessed as MIC for cefpodoxime antibacterial activity at 16 mg/L by broth microdilution method
# [8] = tested on: Pseudomonas aeruginosa PAO1; assay: Inhibition of beta-lactamase activity in Pseudomonas aeruginosa PAO1 PAHUAC-14 (ST-966) assessed as MIC for cefpodoxime antibacterial activity at 16 mg/L by broth microdilution method
# [9] = tested on: Pseudomonas aeruginosa PAO1; assay: Inhibition of beta-lactamase activity in Pseudomonas aeruginosa PAO1 53/22-113 (ST-244) assessed as MIC for cefpodoxime antibacterial activity at 16 mg/L by broth microdilution method
# [10] = tested on: Pseudomonas aeruginosa PAO1; assay: Inhibition beta lactamase PDC-1 in Pseudomonas aeruginosa PAO1 assessed half life of nitrocefin substrate measured by 96 well microtitre plate assay
# [11] = tested on: Pseudomonas aeruginosa PAO1; assay: Inhibition beta lactamase PDC-1 in Pseudomonas aeruginosa PAO1 assessed as deacylation off-rate using nitrocefin as substrate at 30 mins measured by 96 well microtitre plate
# [12] = tested on: Pseudomonas aeruginosa PAO1; assay: Inhibition of beta-lactamase activity in Pseudomonas aeruginosa PAO1 deltadacB assessed as MIC for cefpodoxime antibacterial activity at 4 mg/L by broth microdilution method
# [13] = tested on: Pseudomonas aeruginosa PAO1; assay: Inhibition of beta lactamase PDC-1 in Pseudomonas aeruginosa PAO1 assessed as reduction in enzyme activity using nitrocefin as chromogenic substrate preincubated for 10 min using 96 well microtiter plate
# [14] = tested on: Pseudomonas aeruginosa PAO1; assay: Inhibition of beta-lactamase activity in Pseudomonas aeruginosa PAO1 PAHUAC-14 (ST-966) assessed as MIC for cefpodoxime antibacterial activity at 4 mg/L by broth microdilution method
# [15] = tested on: Pseudomonas aeruginosa PAO1; assay: Inhibition of beta-lactamase activity in Pseudomonas aeruginosa PAO1 assessed as MIC for cefpodoxime antibacterial activity at 4 mg/L by broth microdilution method
# [16] = tested on: Pseudomonas aeruginosa PAO1; assay: Inhibition of beta-lactamase activity in Pseudomonas aeruginosa PAO1 deltaC+pUCP-(PDC-5) assessed as MIC for cefpodoxime antibacterial activity at 4 mg/L by broth microdilution method
# [17] = tested on: Pseudomonas aeruginosa PAO1; assay: Inhibition of beta-lactamase activity in Pseudomonas aeruginosa PAO1 23/14-053 (ST-309) assessed as MIC for cefpodoxime antibacterial activity at 4 mg/L by broth microdilution method
# [18] = tested on: Pseudomonas aeruginosa PAO1; assay: Inhibition of beta-lactamase activity in Pseudomonas aeruginosa PAO1 17/14-017 (ST-235) assessed as MIC for cefpodoxime antibacterial activity at 16 mg/L by broth microdilution method
# [19] = tested on: Pseudomonas aeruginosa PAO1; assay: Inhibition of beta-lactamase activity in Pseudomonas aeruginosa PAO1 53/22-113 (ST-244) assessed as MIC for cefpodoxime antibacterial activity at 4 mg/L by broth microdilution method
# [20] = tested on: Pseudomonas aeruginosa PAO1; assay: Inhibition of beta-lactamase activity in Pseudomonas aeruginosa PAO1 deltadacBdeltadacC assessed as MIC for cefpodoxime antibacterial activity at 16 mg/L by broth microdilution method
# [21] = tested on: Pseudomonas aeruginosa PAO1; assay: Inhibition of beta-lactamase activity in Pseudomonas aeruginosa PAO1 deltadacBdeltadacC assessed as MIC for cefpodoxime antibacterial activity at 4 mg/L by broth microdilution method
# [22] = tested on: Pseudomonas aeruginosa PAO1; assay: Inhibition of beta-lactamase activity in Pseudomonas aeruginosa PAO1 6/04-224 (ST-175) assessed as MIC for cefpodoxime antibacterial activity at 16 mg/L by broth microdilution method
# [23] = tested on: Pseudomonas aeruginosa PAO1; assay: Inhibition of beta-lactamase activity in Pseudomonas aeruginosa PAO1 deltaampD assessed as MIC for cefpodoxime antibacterial activity at 4 mg/L by broth microdilution method
# [24] = tested on: Pseudomonas aeruginosa PAO1; assay: Inhibition of beta-lactamase activity in Pseudomonas aeruginosa PAO1 deltadacBdeltaampD assessed as MIC for cefpodoxime antibacterial activity at 4 mg/L by broth microdilution method
# [25] = tested on: Pseudomonas aeruginosa PAO1; assay: Inhibition of beta-lactamase activity in Pseudomonas aeruginosa PAO1 13/09-018 (ST-175) assessed as MIC for cefpodoxime antibacterial activity at 16 mg/L by broth microdilution method
# [26] = tested on: Pseudomonas aeruginosa PAO1; assay: Inhibition beta lactamase PDC-1 in Pseudomonas aeruginosa PAO1 assessed as ratio of kinact/K1 using nitrocefin as substrate measured by 96 well microtitre plate
# [27] = tested on: Pseudomonas aeruginosa PAO1; assay: Inhibition of beta-lactamase activity in Pseudomonas aeruginosa PAO1 36/14-210 (ST-235) assessed as MIC for cefpodoxime antibacterial activity at 16 mg/L by broth microdilution method
# [28] = tested on: Pseudomonas aeruginosa PAO1; assay: Inhibition of beta-lactamase activity in Pseudomonas aeruginosa PAO1 deltaC+pUCP-(PDC-1) assessed as MIC for cefpodoxime antibacterial activity at 4 mg/L by broth microdilution method
# [29] = tested on: Pseudomonas aeruginosa PAO1; assay: Inhibition of beta-lactamase activity in Pseudomonas aeruginosa PAO1 deltadacBdeltapbpGdeltadacC assessed as MIC for cefpodoxime antibacterial activity at 16 mg/L by broth microdilution method
# [30] = tested on: Pseudomonas aeruginosa PAO1; assay: Inhibition beta lactamase PDC-1 in Pseudomonas aeruginosa PAO1 assessed as inactivation efficiency by measuring acylation rate (k2/K) using nitrocefin as substrate measured by 96 well microtitre plate
# [31] = tested on: Pseudomonas aeruginosa PAO1; assay: Inhibition of beta-lactamase activity in Pseudomonas aeruginosa PAO1 deltaampD assessed as MIC for cefpodoxime antibacterial activity at 16 mg/L by broth microdilution method
# [32] = tested on: Pseudomonas aeruginosa PAO1; assay: Inhibition of beta-lactamase activity in Pseudomonas aeruginosa PAO1 assessed as MIC for cefpodoxime antibacterial activity at 16 mg/L by broth microdilution method
# [33] = tested on: Pseudomonas aeruginosa PAO1; assay: Inhibition of beta-lactamase activity in Pseudomonas aeruginosa PAO1 36/14-210 (ST-235) assessed as MIC for cefpodoxime antibacterial activity at 4 mg/L by broth microdilution method
# [34] = Inhibition beta lactamase PDC-1 in Pseudomonas aeruginosa PAO1 assessed as apparent inhibition constant using nitrocefin as substrate measured by 96 well microtitre plate; conditions: read-out: Ki(app)
# [35] = tested on: Pseudomonas aeruginosa PAO1; assay: Inhibition of beta-lactamase activity in Pseudomonas aeruginosa PAO1 deltadacB assessed as MIC for cefpodoxime antibacterial activity at 16 mg/L by broth microdilution method
# [36] = tested on: Pseudomonas aeruginosa PAO1; assay: Inhibition of beta-lactamase activity in Pseudomonas aeruginosa PAO1 17/14-017 (ST-235) assessed as MIC for cefpodoxime antibacterial activity at 4 mg/L by broth microdilution method
# Pseudomonas aeruginosa = assay: Inhibition of beta lactamase PDC-1 in Pseudomonas aeruginosa PAO1 for 30 min using MALDI TOF-MS analysis
# [37] = tested on: Pseudomonas aeruginosa PAO1; assay: Inhibition of beta-lactamase activity in Pseudomonas aeruginosa PAO1 deltaC assessed as MIC for cefpodoxime antibacterial activity at 16 mg/L by broth microdilution method
# [38] = tested on: Pseudomonas aeruginosa PAO1; assay: Inhibition of beta-lactamase activity in Pseudomonas aeruginosa PAO1 deltaDdeltsDh2deltaDh3 assessed as MIC for cefpodoxime antibacterial activity at 16 mg/L by broth microdilution method
# [39] = tested on: Pseudomonas aeruginosa PAO1; assay: Inhibition of beta-lactamase activity in Pseudomonas aeruginosa PAO1 deltaC+pUCP-(PDC-5) assessed as MIC for cefpodoxime antibacterial activity at 16 mg/L by broth microdilution method
# [40] = tested on: Pseudomonas aeruginosa PAO1; assay: Inhibition of beta-lactamase activity in Pseudomonas aeruginosa PAO1 deltadacBdeltaampD assessed as MIC for cefpodoxime antibacterial activity at 16 mg/L by broth microdilution method
# [41] = tested on: Pseudomonas aeruginosa PAO1; assay: Inhibition of beta-lactamase activity in Pseudomonas aeruginosa PAO1 deltaC assessed as MIC for cefpodoxime antibacterial activity at 4 mg/L by broth microdilution method
# [42] = tested on: Pseudomonas aeruginosa PAO1; assay: Inhibition of beta-lactamase activity in Pseudomonas aeruginosa PAO1 deltaDdeltsDh2deltaDh3 assessed as MIC for cefpodoxime antibacterial activity at 4 mg/L by broth microdilution method
# [43] = tested on: Pseudomonas aeruginosa PAO1; assay: Inhibition of beta-lactamase activity in Pseudomonas aeruginosa PAO1 23/14-053 (ST-309) assessed as MIC for cefpodoxime antibacterial activity at 16 mg/L by broth microdilution method
# [44] = tested on: Pseudomonas aeruginosa PAO1; assay: Inhibition of beta-lactamase activity in Pseudomonas aeruginosa PAO1 deltadacBdeltapbpGdeltadacC assessed as MIC for cefpodoxime antibacterial activity at 4 mg/L by broth microdilution method
compound,measurement,setting,value
O=C(O)[C@H]1/C(=C/CO)O[C@@H]2CC(=O)N21 [CLAVULANIC ACID],IC50,[1],> 200000 nM
C[C@]1(COC(=O)Cc2ccc(O)c(O)c2)[C@H](C(=O)O)N2C(=O)/C(=C/c3cc(Br)ccn3)[C@H]2S1(=O)=O,MIC,[2],8 µg/mL
same,Kinact,[3],0.032 s⁻¹
same,MIC,[4],1 µg/mL
same,MIC,[5],1 µg/mL
same,MIC,[6],2 µg/mL
same,MIC,[7],1 µg/mL
same,MIC,[8],2 µg/mL
same,MIC,[9],4 µg/mL
same,T1/2,[10],1.75 h
same,K,[11],7 10^-2/min
same,MIC,[12],1 µg/mL
same,inhibition,[13],inactive
same,MIC,[14],4 µg/mL
same,MIC,[15],1 µg/mL
same,MIC,[16],2 µg/mL
same,MIC,[17],2 µg/mL
same,MIC,[18],2 µg/mL
same,MIC,[19],4 µg/mL
same,MIC,[20],0.5 µg/mL
same,MIC,[21],1 µg/mL
same,MIC,[22],8 µg/mL
same,MIC,[23],1 µg/mL
same,MIC,[24],4 µg/mL
same,MIC,[25],8 µg/mL
same,K,[26],20.9 10^5/M/s
same,MIC,[27],8 µg/mL
same,MIC,[28],1 µg/mL
same,MIC,[29],0.5 µg/mL
same,k2/K inactivation efficiency,[30],6.2 M⁻¹ s⁻¹
same,MIC,[31],1 µg/mL
same,MIC,[32],1 µg/mL
same,MIC,[33],16 µg/mL
same,Ki,[34],14 nM
same,MIC,[35],0.5 µg/mL
same,MIC,[36],2 µg/mL
same,inhibition,Pseudomonas aeruginosa,inactive
same,MIC,[37],1 µg/mL
same,MIC,[38],1 µg/mL
same,MIC,[39],1 µg/mL
same,MIC,[40],1 µg/mL
same,MIC,[41],1 µg/mL
same,MIC,[42],1 µg/mL
same,MIC,[43],2 µg/mL
same,IC50,[1],0.9 nM
same,MIC,[44],1 µg/mL
CC1(C)[C@H](C(=O)O)N2C(=O)C[C@H]2S1(=O)=O [SULBACTAM],IC50,[1],4370 nM
NC(=O)[C@@H]1CC[C@@H]2CN1C(=O)N2OS(=O)(=O)O [AVIBACTAM SODIUM],MIC,[2],8 µg/mL
same,MIC,[4],1 µg/mL
same,MIC,[5],1 µg/mL
same,MIC,[6],2 µg/mL
same,MIC,[7],1 µg/mL
same,MIC,[8],2 µg/mL
same,MIC,[9],4 µg/mL
same,T1/2,[10],0.467 h
same,K,[11],2.6 10^-2/min
same,MIC,[12],1 µg/mL
same,MIC,[14],4 µg/mL
same,MIC,[15],1 µg/mL
same,MIC,[16],2 µg/mL
same,MIC,[17],1 µg/mL
same,MIC,[18],4 µg/mL
same,MIC,[19],4 µg/mL
same,MIC,[20],0.5 µg/mL
same,MIC,[21],1 µg/mL
same,MIC,[22],8 µg/mL
same,MIC,[23],1 µg/mL
same,MIC,[24],4 µg/mL
same,MIC,[25],8 µg/mL
same,MIC,[27],4 µg/mL
same,MIC,[28],1 µg/mL
same,MIC,[29],0.5 µg/mL
same,k2/K inactivation efficiency,[30],1370 M⁻¹ s⁻¹
same,MIC,[31],0.5 µg/mL
same,MIC,[32],1 µg/mL
same,MIC,[33],8 µg/mL
same,Ki,[34],990 nM
same,MIC,[35],0.5 µg/mL
same,MIC,[36],4 µg/mL
same,MIC,[37],1 µg/mL
same,MIC,[38],1 µg/mL
same,MIC,[39],1 µg/mL
same,MIC,[40],1 µg/mL
same,MIC,[41],1 µg/mL
same,MIC,[42],2 µg/mL
same,MIC,[43],1 µg/mL
same,IC50,[1],51 nM
same,MIC,[44],1 µg/mL
C[C@]1(Cn2ccnn2)[C@H](C(=O)O)N2C(=O)C[C@H]2S1(=O)=O [TAZOBACTAM],IC50,[1],844 nM
